Measured values: patent publication US20160000869A1, “METHODS OF TREATING IPEX SYNDROME USING TOXIN-BASED PHARMACEUTICAL COMPOSITIONS” (KINETA ONE, LLC, priority 2013, published 2016)

How the values were obtained:
[1] = test system: IPEX and secondary conditions related to IPEX; test: Administration of effective amounts to subjects with IPEX (additional studies); assay type: in vivo; details: diabetes, thyroid dysfunction, enteropathy, eczema and others
[2] = test system: effector memory T cells (TEM); test: Kv1.3 expression, cytokine production and proliferation of TEM in activated PBMCs from IPEX subjects, with or without ShK-186 (flow cytometry, RT-QPCR); assay type: cell-based, human
Procedure: This example is performed to evaluate the expression of Kv1.3 channels by TEM found in IPEX subjects compared to controls, and to characterize the responsiveness of IPEX subject samples to treatment with therapeutic peptides such as the ShK-based peptide, ShK-186, formulated into a pharmaceutical composition. To evaluate Kv1.3 expression, peripheral blood mononuclear cells from IPEX and healthy controls are isolated. In the first phase of the example, the cells are activated in vitro with anti-CD3 antibodies or mitogens and then subjected to immunostaining and multicolor flow cytometry.
In the second phase, matching cell aliquots are analyzed by RT-QPCR for quantitation of Kv1.3 mRNA. In the third phase, matching cell aliquots are used to study the ability of ShK-186 to block the proinflammatory and proliferative potential of TEM from IPEX subjects versus controls. Cytokines (IFN-γ and IL-2, -4, -10, -17, and -21) and perforin are detected by intracellular cytokine staining and flow cytometry in resting or activated cells in the presence or absence of ShK-186. In this example, ten IPEX and ten normal controls are studied.
Peripheral blood mononuclear cells (PBMCs) are evaluated by multiparameter flow cytometry for cell surface expression of CD4 and CD25 and intracellular FOXP3. FACS sorting of all stimulated and stained samples will also be performed.

## (L-PhosphoTyr)-AEEAc-RSCIDTIPKSRCTAFQCKHSMKYRLSFCRKTCGTC-amide [ShK-186]
[1]
  clinically relevant improvements in IPEX and secondary conditions related to IPEX: produces clinically relevant improvements
[2]; PBMCs from IPEX subjects vs controls
  proliferation of TEM: reduces
[2]; PBMCs from IPEX subjects vs healthy controls, activated with anti-CD3 antibodies or mitogens
  expression of Kv1.3 channels by TEM: reduces
[2]; intracellular cytokine staining and flow cytometry, resting or activated cells
  IFN-γ and IL-2, -4, -10, -17, and/or -21 production by TEM: reduces
